Measured values published in US20100234464A1, “COMPOUNDS FOR THE TREATMENT OF METABOLIC DISORDERS” (WELLSTAT THERAPEUTICS CORPORATION, priority 2006, published 2010).

System: male db/db mice
Assay: Antidiabetic efficacy of oral compound in male db/db mice (nonfasting serum glucose and triglycerides after 14 days)
Type: in vivo
Conditions: for Serum triglycerides, Mean ± SEM / Serum glucose, Mean ± SD: 100 mg/kg/day oral gavage once daily for 2 weeks, nonfasting serum, N = 5 mice/group; for Serum triglycerides, Mean ± SEM: vehicle 220.8 ± 62.1; for Serum glucose, Mean ± SD: vehicle 735.0 ± 66.0; for Effect on nonfasting serum glucose relative to vehicle-treated mice (in words) / Effect on nonfasting serum triglycerides relative to vehicle-treated mice (in words): 100 mg/kg/day oral, 2 weeks
Excerpt: Male db/db mice have a defect in the receptor for the appetite-regulating protein leptin and consequently develop hyperphagia, obesity, insulin resistance, hyperglycemia, and hypertriglyceridemia. Furthermore, male db/db mice undergo progressive islet failure, resulting in a transition from hyperinsulinemia to insulin deficiency.
Male db/db mice (10 weeks old) were divided into weight-matched groups of 5 mice each. Age-matched male C57BL/6 mice were used as lean control animals. Mice received once-daily oral (gavage) doses of the vehicle (1% hydroxypropylmethylcellulose in water), Compound BI, Compound CF, or Compound DN for two weeks. Treatment groups and drug doses were as follows. • 1. Vehicle • 2. Compound BI 100 mg/kg/day • 3. Compound CF 100 mg/kg/day • 4. Compound DN 100 mg/kg/day
Nonfasting blood samples were collected after 14 days of treatment for determination of serum glucose, triglycerides, and free fatty acids.

SMILES: Cc1cccc(C)c1COc1cccc(C(=O)CCC(=O)O)c1 [Compound BI, 4-(3-(2,6-Dimethylbenzyloxy)phenyl)-4-oxobutyric acid]
- Serum triglycerides, Mean ± SEM: 85.8 ± 13.0 mg/dL
- Serum glucose, Mean ± SD: 257.0 ± 57.0 mg/dL
- Effect on nonfasting serum glucose relative to vehicle-treated mice (in words): significantly reduced
- Effect on nonfasting serum triglycerides relative to vehicle-treated mice (in words): significantly reduced

SMILES: O=C(O)Cc1cccc(OCc2ccc(C(F)(F)F)cc2C(F)(F)F)c1 [Compound DN, 3-(2,4-Bis(trifluoromethyl)benzyloxy)phenylacetic acid]
- Serum triglycerides, Mean ± SEM: 157.2 ± 40.3 mg/dL
- Serum glucose, Mean ± SD: 396.0 ± 84.0 mg/dL
- Effect on nonfasting serum glucose relative to vehicle-treated mice (in words): significantly reduced
- Effect on nonfasting serum triglycerides relative to vehicle-treated mice (in words): significantly reduced

SMILES: Cc1cccc(C)c1COc1cccc(CC(=O)O)c1 [Compound CF, 3-(2,6-Dimethylbenzyloxy)phenylacetic acid]
- Serum triglycerides, Mean ± SEM: 90.5 ± 17.4 mg/dL
- Serum glucose, Mean ± SD: 441.0 ± 162.0 mg/dL
- Effect on nonfasting serum glucose relative to vehicle-treated mice (in words): significantly reduced
- Effect on nonfasting serum triglycerides relative to vehicle-treated mice (in words): significantly reduced
